Test results published in patent US20230146455A1, “TREATMENT OF INFLAMMATORY DISEASES WITH PEPTIDES AND PHARMACEUTICAL COMPOSITIONS” (Yuyu Pharma, Inc., priority 2020, published 2023).
“And” between values parts separate entries of the source, which are not always exact repeats. Equal values may be shown once. Where a SMILES comes first, the peptide text is derived from it. [ ]: non-standard residue; d: D form. Hyp = O=C(O)[C@@H]1C[C@@H](O)CN1

Test system: IL-1 beta/IL-1F2
Assay: Example 9 Luminex, LPS hPBMCs: IL-1 beta/IL-1F2
Format: cell-based, human
Protocol: Treatment Human PBMCs were pretreated with YY-101, YDE-011 and YDE-043 or reference compound; Xiidra® at various concentration (ranging from 1 nM to 100 uM) for 2 h before stimulation. An equal volume of 0.5% DMSO was used as a vehicle control. Then, the cells were treated with LPS at 5 ug/ml. The supernatants from treated cells were harvested at 24 h and placed in a 96 well for Luminex cytokine & chemokine profiling using a Luminex 200 multiplex assay (Luminex; R&D system, USA).
The main study arm with triplicate wells per group in a 24-well plate: • 1. Blank • 2. PBMC: 0.5% DMSO • 3. PBMC+LPS (5 ug/ml) • 4. PBMC+YY-101 100 uM • 5. PBMC+YY-101 10 uM • 6. PBMC+YY-101 1 uM • 7. PBMC+YY-101 0.1 uM • 8. PBMC+YY-101 0.01 uM • 9. PBMC+LPS (5 ug/ml)+Xiidra®100 uM • 10. PBMC+LPS (5 ug/ml)+Xiidra® 10 uM • 11. PBMC+LPS (5 ug/ml)+Xiidra® 1 uM • 12. PBMC+LPS (5 ug/ml)+Xiidra®0.1 uM • 13. PBMC+LPS (5 ug/ml)+Xiidra®0.01 uM • 14. PBMC+LPS (5 ug/ml)+Xiidra®0.001 uM • 15. PBMC+LPS (5 ug/ml)+YY-101 100 uM • 16. PBMC+LPS (5 ug/ml)+YY-101 10 uM • 17. PBMC+LPS (5 ug/ml)+YY-101 1 uM • 18. PBMC+LPS (5 ug/ml)+YY-101 0.1 uM • 19. PBMC+LPS (5 ug/ml)+YY-101 0.01 uM • 20. PBMC+LPS (5 ug/ml)+YY-101 0.001 uM • 21. PBMC+LPS (5 ug/ml)+YDE-011 100 uM • 22. PBMC+LPS (5 ug/ml)+YDE-011 10 uM • 23. PBMC+LPS (5 ug/ml)+YDE-011 1 uM • 24. PBMC+LPS (5 ug/ml)+YDE-011 0.1 uM • 25. PBMC+LPS (5 ug/ml)+YDE-011 0.01 uM • 26. PBMC+LPS (5 ug/ml)+YDE-011 0.001 uM • 27. PBMC+LPS (5 ug/ml)+YDE-043 100 uM • 28. PBMC+LPS (5 ug/ml)+YDE-043 10 uM • 29. PBMC+LPS (5 ug/ml)+YDE-043 1 uM • 30. PBMC+LPS (5 ug/ml)+YDE-043 0.1 uM • 31. PBMC+LPS (5 ug/ml)+YDE-043 0.01 uM • 32. PBMC+LPS (5 ug/ml)+YDE-043 0.001 uM
Multiplex assay was used to measure 30 cytokines and chemokines. The 1:2, 1:10 and 1:200 diluted cell supernatant and serial dilution of the standard were dispensed into a 96 well plate at 50 ul/well. Then, the pre-mixed cocktail of antibody-coated magnetic beads was dispensed at 50 ul/well and incubated at room temperature for 2 h in a horizontal orbital microplate shaker at 800±500 rpm. The beads were washed using a magnetic device to prevent loss. The biotin-antibody was dispensed in 50 ul of each well and incubated at room temperature for 1 h in a shaker at 800±500 rpm. After washing, streptavidin-PE was added at 50 ul/well and incubated at room temperature for 30 min in a shaker under the same conditions. Finally, after washing, wash buffer (100 ul/well) was added to the plate and incubated in a shaker for 2 min. The Luminex™ 200 setting were set according to the manufacturer's protocol. The data was calculated with a standard five-parameter logistic nonlinear regression analysis of the data (xPonent software 4.2, USA). The levels of cytokine/chemokine are normalized to the live cell counts (1×10^5 cells/mL) and presented as concentrations per mL (pg/mL or ng/mL).

[1] = PBMC + LPS(5 ug/ml) + test article 0.001 uM, Mean
[2] = PBMC + LPS(5 ug/ml) + test article 0.001 uM, single replicates
[3] = PBMC + LPS(5 ug/ml) + test article 0.01 uM, Mean
[4] = PBMC + LPS(5 ug/ml) + test article 0.01 uM, single replicates
[5] = PBMC + LPS(5 ug/ml) + test article 0.1 uM, Mean
[6] = PBMC + LPS(5 ug/ml) + test article 0.1 uM, single replicates
[7] = PBMC + LPS(5 ug/ml) + test article 1 uM, Mean
[8] = PBMC + LPS(5 ug/ml) + test article 1 uM, single replicates
[9] = PBMC + LPS(5 ug/ml) + test article 10 uM, Mean
[10] = PBMC + LPS(5 ug/ml) + test article 10 uM, single replicates
[11] = PBMC + LPS(5 ug/ml) + test article 100 uM, Mean
[12] = PBMC + LPS(5 ug/ml) + test article 100 uM, single replicates
[13] = PBMC + test article 0.01 uM, no LPS, Mean
[14] = PBMC + test article 0.01 uM, no LPS, single replicates
[15] = PBMC + test article 0.1 uM, no LPS, Mean
[16] = PBMC + test article 0.1 uM, no LPS, single replicates
[17] = PBMC + test article 1 uM, no LPS, Mean
[18] = PBMC + test article 1 uM, no LPS, single replicates
[19] = PBMC + test article 10 uM, no LPS, Mean
[20] = PBMC + test article 10 uM, no LPS, single replicates
[21] = PBMC + test article 100 uM, no LPS, Mean
[22] = PBMC + test article 100 uM, no LPS, single replicates

Work on CC(C)C[C@H](NC(=O)CNC(=O)[C@H](CC(=O)O)NC(=O)[C@H](CCC(N)=O)NC(=O)CNC(=O)[C@@H]1C[C@@H](O)CN1)C(=O)N[C@@H](C)C(=O)NCC(=O)N1CCC[C@H]1C(=O)N[C@@H](CCCCN)C(=O)O [YY-101] (H-[Hyp]GQDGLAGPK-OH; N-terminus and C-terminus assumed) yielded a Concentration [1] of 7614.6 pg/mL, an MFI [1] of 1976.7 and a conc/live cell [1] of 1188.6 pg/10^5. The Concentration [2] was 7907.5 pg/mL and 7935.5 pg/mL and 7000.7 pg/mL, the MFI [2] was 2055.5 and 2063.0 and 1811.5 and the conc/live cell [2] was 1387.3 pg/10^5 and 1117.7 pg/10^5 and 1060.7 pg/10^5. The Concentration [3] was 8390.1 pg/mL, the MFI [3] was 2184.3 and the conc/live cell [3] was 1361.7 pg/10^5. For the same molecule, the Concentration [4] was 8405.7 pg/mL and 8552.3 pg/mL and 8212.4 pg/mL, the MFI [4] was 2188.5 and 2227.5 and 2137.0 and the conc/live cell [4] was 1313.4 pg/10^5 and 1425.4 pg/10^5 and 1346.3 pg/10^5. The Concentration [5] was 8511.2 pg/mL, the MFI [5] was 2216.5 and the conc/live cell [5] was 1463.1 pg/10^5. The Concentration [6] was 8266.8 pg/mL and 8740.8 pg/mL and 8526.0 pg/mL, the MFI [6] was 2151.5 and 2277.5 and 2220.5 and the conc/live cell [6] was 1333.4 pg/10^5 and 1680.9 pg/10^5 and 1375.2 pg/10^5. For the same molecule, the Concentration [7] was 7838.4 pg/mL, the MFI [7] was 2036.8 and the conc/live cell [7] was 1203.9 pg/10^5. The Concentration [8] was 8218.0 pg/mL and 7821.7 pg/mL and 7475.4 pg/mL, the MFI [8] was 2138.5 and 2032.5 and 1939.5 and the conc/live cell [8] was 1304.4 pg/10^5 and 1101.6 pg/10^5 and 1205.7 pg/10^5. For the same molecule, the Concentration [9] was 8659.2 pg/mL, the MFI [9] was 2255.8 and the conc/live cell [9] was 1311.5 pg/10^5. For the same molecule, the Concentration [10] was 8518.5 pg/mL and 8816.3 pg/mL and 8642.7 pg/mL, the MFI [10] was 2218.5 and 2297.5 and 2251.5 and the conc/live cell [10] was 1419.7 pg/10^5 and 1377.5 pg/10^5 and 1137.2 pg/10^5. It also gave a Concentration [11] of 12179.5 pg/mL, an MFI [11] of 3163.2 and a conc/live cell [11] of 2105.8 pg/10^5. For the same molecule, the Concentration [12] was 12944.3 pg/mL and 11783.1 pg/mL and 11811.0 pg/mL, the MFI [12] was 3353.5 and 3064.5 and 3071.5 and the conc/live cell [12] was 2054.7 pg/10^5 and 1900.5 pg/10^5 and 2362.2 pg/10^5. For the same molecule, the Concentration [13] was 5.5 pg/mL, the MFI [13] was 2.5 and the conc/live cell [13] was 0.6 pg/10^5. For the same molecule, the Concentration [14] was 5.5 pg/mL, the MFI [14] was 0.5 and 4.5 and the conc/live cell [14] was 0.0 pg/10^5 and 1.2 pg/10^5. It also gave an MFI [15] of 1.5, a conc/live cell [15] of 0.0 pg/10^5 and an MFI [16] of 1.5. For the same molecule, the conc/live cell [16] was 0.0 pg/10^5, the MFI [17] was 2.0 and the conc/live cell [17] was 0.0 pg/10^5. The MFI [18] was 3.5 and 0.5, the conc/live cell [18] was 0.0 pg/10^5 and the Concentration [19] was 122.9 pg/mL. For the same molecule, the MFI [19] was 13.0, the conc/live cell [19] was 9.6 pg/10^5 and the Concentration [20] was 122.9 pg/mL. The MFI [20] was 23.5 and 2.5, the conc/live cell [20] was 19.2 pg/10^5 and 0.0 pg/10^5 and the Concentration [21] was 159.6 pg/mL. The MFI [21] was 31.5, the conc/live cell [21] was 24.7 pg/10^5 and the Concentration [22] was 278.4 pg/mL and 40.7 pg/mL. For the same molecule, the MFI [22] was 53.5 and 9.5, the conc/live cell [22] was 43.5 pg/10^5 and 5.8 pg/10^5 and the “LPS-induced IL-I3 levels (in words)” value (at 100.iM, LPS 5 ug/mL 24 hrs) was “further increased”.

In the case of CC(C)C[C@H](NC(=O)[C@H](CCC(N)=O)NC(=O)CNC(=O)[C@@H]1C[C@@H](O)CN1)C(=O)NCC(=O)O [YDE-043] (H-[Hyp]GQLG-OH; N-terminus and C-terminus assumed), the Concentration [1] is reported as 6632.8 pg/mL, the MFI [1] is reported as 1711.8 and the conc/live cell [1] is reported as 1343.9 pg/10^5. The Concentration [2] was 6369.5 pg/mL and 7037.7 pg/mL and 6491.1 pg/mL, the MFI [2] was 1640.5 and 1821.5 and 1673.5 and the conc/live cell [2] was 1447.6 pg/10^5 and 1173.0 pg/10^5 and 1411.1 pg/10^5. For the same molecule, the Concentration [3] was 6569.2 pg/mL, the MFI [3] was 1694.7 and the conc/live cell [3] was 1253.9 pg/10^5. For the same molecule, the Concentration [4] was 6432.1 pg/mL and 6655.2 pg/mL and 6620.2 pg/mL, the MFI [4] was 1657.5 and 1718.0 and 1708.5 and the conc/live cell [4] was 1429.4 pg/10^5 and 1008.4 pg/10^5 and 1324.0 pg/10^5. The Concentration [5] was 6324.2 pg/mL, the MFI [5] was 1628.2 and the conc/live cell [5] was 1172.5 pg/10^5. For the same molecule, the Concentration [6] was 6049.3 pg/mL and 6384.2 pg/mL and 6539.0 pg/mL, the MFI [6] was 1553.5 and 1644.5 and 1686.5 and the conc/live cell [6] was 1209.9 pg/10^5 and 1140.0 pg/10^5 and 1167.7 pg/10^5. It also gave a Concentration [7] of 6195.3 pg/mL, an MFI [7] of 1593.2 and a conc/live cell [7] of 1173.7 pg/10^5. The Concentration [8] was 6303.2 pg/mL and 5942.7 pg/mL and 6340.0 pg/mL, the MFI [8] was 1622.5 and 1524.5 and 1632.5 and the conc/live cell [8] was 1086.8 pg/10^5 and 1238.1 pg/10^5 and 1196.2 pg/10^5. It also gave a Concentration [9] of 6556.9 pg/mL, an MFI [9] of 1691.3 and a conc/live cell [9] of 1214.7 pg/10^5. The Concentration [10] was 6382.4 pg/mL and 6634.9 pg/mL and 6653.4 pg/mL, the MFI [10] was 1644.0 and 1712.5 and 1717.5 and the conc/live cell [10] was 1227.4 pg/10^5 and 1228.7 pg/10^5 and 1188.1 pg/10^5. The Concentration [11] was 8209.5 pg/mL, the MFI [11] was 2135.8 and the conc/live cell [11] was 1304.8 pg/10^5. The Concentration [12] was 8744.5 pg/mL and 7674.4 pg/mL, the MFI [12] was 2278.5 and 1993.0 and the conc/live cell [12] was 1410.4 pg/10^5 and 1199.1 pg/10^5.
